Patent US12612412B2, “Antiviral heterocyclic compounds” (Enanta Pharmaceuticals, Inc., priority 2021, dated 2026)
pEC50: −log10 of the molar value.

system: genotype A, "Long" strain RSV; test: RSV-A assay (CPE protection in Hep-2 cells, ATPlite readout); type: cell-based, Human respiratory syncytial virus (HRSV); settings: human respiratory syncytial virus, RSV-A Long strain, MOI 0.1, CPE protection, read-out: Human RSV-A (“Long”) EC50
Procedure, shortened: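 Hep-2 cells (8,000/well) were treated with 2-fold serial compound dilutions in duplicate and infected with RSV at MOI 0.1. After 5 days, protection from cytopathic effect was measured as cell viability by ATPlite luminescence, and EC50 values were derived.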

SMILES | pEC50
COc1cc(C(=O)NC[C@](O)(c2cc3c(c(-c4cc(Cl)ccc4Cl)n2)OC[C@]3(C)C(N)=O)C(F)(F)F)cc2cn(C3CC3)nc12 [Example 1255] | > 6.70
COc1cc(C(=O)NC[C@](O)(c2cc3c(c(-c4c(Cl)ccc(Cl)c4F)n2)OC[C@]3(C)C(N)=O)C(F)(F)F)cc2cn(C3CC3)nc12 [Example 1262] | > 6.70
COc1cc(C(=O)NC[C@](O)(c2cc3c(c(-c4ccc(F)cc4)n2)OC[C@]3(C)C(N)=O)C2CC2)cc2cc(C3CC3)nnc12 [Example 1109] | > 6.70
COc1cc(C(=O)NC[C@@](O)(c2cc3c(c(-c4cc(F)cc(F)c4F)n2)OC[C@]3(C)C(N)=O)C(F)(F)F)cc2cn(C3CC3)nc12 [Example 1246] | > 6.70
COc1cc(C(=O)NC[C@@](O)(c2cc3c(c(-c4ccc(OC(F)(F)F)cc4)n2)OC[C@]3(C)C(N)=O)C(F)(F)F)cc2cn(C3CC3)nc12 [Example 897] | < 6.70
CNC(=O)[C@@]1(C)COc2c1cc([C@@](O)(CNC(=O)c1cc(OC)c3nn(C4CC4)cc3c1)C(F)(F)F)nc2-c1ccc(F)c(F)c1Cl [Example 1202] | > 6.70
COc1cc(C(=O)NC[C@](O)(c2cc3c(c(-c4cc(Cl)cc(F)c4F)n2)OC[C@]3(C)C(N)=O)C(F)(F)F)cc2cn(C3CC3)nc12 [Example 1243] | > 6.70
COc1cc(C(=O)NCC(O)(c2cc3c(c(C4=CCOCC4)n2)OC[C@]3(C)C(N)=O)C(F)(F)F)cc2cn(C3CC3)nc12 (some centres unmarked) [Example 1240] | < 6.70
COc1cc(C(=O)NC[C@](O)(c2cc3c(c(-c4cc(Cl)cc(F)c4Cl)n2)OC[C@]3(C)C(N)=O)C(F)(F)F)cc2cn(C3CC3)nc12 [Example 1259] | > 6.70
COc1cc(C(=O)NC[C@](O)(c2cc3c(c(-c4ccc(Cl)cc4Cl)n2)OC[C@]3(C)C(N)=O)C2CC2)cc2cn(C3CC3)nc12 [Example 1279] | > 6.70
[2H]C([2H])([2H])c1nc2c(OC)cc(C(=O)NC[C@](O)(c3cc4c(c(-c5cc(F)c(F)cc5F)n3)OC[C@]4(C)C(N)=O)C3CC3)cc2cc1Cl [Example 1288] | > 6.70
COc1cc(C(=O)NC[C@](O)(c2cc3c(c(-c4cc(F)cc(F)c4F)n2)OC[C@]3(C)C(N)=O)C(F)(F)F)cc2cn(C3CC3)nc12 [Example 1247] | > 6.70
COc1cc(C(=O)NC[C@](O)(c2cc3c(c(-c4ccc(Cl)c(F)c4Cl)n2)OC[C@]3(C)C(N)=O)C(F)(F)F)cc2cn(C3CC3)nc12 [Example 1260] | > 6.70

same assay, conditions: human respiratory syncytial virus, genotype A “Long” strain RSV, MOI 0.1, CPE protection, read-out: Human RSV-A (“Long”)

SMILES | pEC50
CC[C@@]1(C(N)=O)COc2c1cc([C@@](O)(CNC(=O)c1cc(OC)c3nc(C)c(Cl)cc3c1)C(F)(F)F)nc2-c1ccc(F)cc1 [Example 247] | < 6.70
CC[C@@]1(C(N)=O)COc2c1cc([C@@](O)(CNC(=O)c1ccc(OC3CC3)c(OC)c1)C(F)(F)F)nc2-c1ccc(F)cc1 [Example 250] | < 6.70
CC[C@]1(C(N)=O)COc2c1cc([C@@](O)(CNC(=O)c1cc(OC)c3nc(C)c(Cl)cc3c1)C(F)(F)F)nc2-c1ccc(F)cc1 [Example 238] | < 6.70
COc1cc(C(=O)NC[C@](O)(c2cc3c(c(-c4ccc(F)cc4)n2)OC[C@]3(C)C(N)=O)C(F)(F)F)nc2cc(C3CC3)nn12 [Example 192] | < 6.70
C[C@]1(C(N)=O)COc2c1cc([C@@](O)(CNC(=O)c1ccc3nccn3n1)C(F)(F)F)nc2-c1ccc(F)cc1 [Example 417] | < 6.70
C[C@]1(C(N)=O)COc2c1cc([C@@](O)(CNC(=O)c1ccc3nnnn3c1)C(F)(F)F)nc2-c1ccc(F)cc1 [Example 110] | < 6.70
Cc1c(C(=O)NC[C@](O)(c2cc3c(c(-c4ccc(F)cc4)n2)OC[C@]3(C)C(N)=O)C(F)(F)F)sc2ccccc12 [Example 435] | < 6.70
CC[C@@]1(C(N)=O)COc2c1cc([C@@](O)(CNC(=O)c1cc(OC)c3ncccc3c1)C(F)(F)F)nc2-c1ccc(F)cc1 [Example 246] | < 6.70
CC(C)(O)CNC(=O)[C@@]1(C)COc2c1cc([C@@](O)(CNC(=O)c1ccc3c(c1)CN(C1CC1)C3=O)C(F)(F)F)nc2-c1ccc(F)cc1 [Example 35] | > 6.70
C[C@]1(C(N)=O)COc2c1cc([C@@](O)(CNC(=O)c1cc(Cl)cc3[nH]ncc13)C(F)(F)F)nc2-c1ccc(F)cc1 [Example 414] | < 6.70
C[C@]1(C(N)=O)COc2c1cc([C@@](O)(CNC(=O)c1cccc3[nH]cnc13)C(F)(F)F)nc2-c1ccc(F)cc1 [Example 429] | < 6.70
COc1cc(C(=O)NC[C@](O)(c2cc3c(c(-c4ccc(F)cc4)n2)OC[C@]3(C(N)=O)C2CC2)C(F)(F)F)cc2cn(C3CC3)nc12 [Example 281] | < 6.70
C[C@]1(C(N)=O)COc2c1cc([C@@](O)(CNC(=O)c1cc3cccnc3s1)C(F)(F)F)nc2-c1ccc(F)cc1 [Example 377] | < 6.70
CC[C@@]1(C(N)=O)COc2c1cc([C@@](O)(CNC(=O)c1cc(OC)c3nc(C4CC4)cn3c1)C(F)(F)F)nc2-c1ccc(F)cc1 [Example 245] | > 6.70
C[C@]1(C(N)=O)COc2c1cc([C@@](O)(CNC(=O)c1cc3cc(F)ccc3s1)C(F)(F)F)nc2-c1ccc(F)cc1 [Example 434] | < 6.70
C[C@]1(C(N)=O)COc2c1cc([C@@](O)(CNC(=O)c1cc(F)c3[nH]ncc3c1)C(F)(F)F)nc2-c1ccc(F)cc1 [Example 104] | > 6.70
C[C@]1(C(N)=O)COc2c1cc([C@@](O)(CNC(=O)c1ccc3nncn3c1)C(F)(F)F)nc2-c1ccc(F)cc1 [Example 109] | < 6.70
COc1cc(C(=O)NC[C@](O)(c2cc3c(c(-c4ccc(F)cc4)n2)OC[C@]3(C)C(N)=O)C(F)(F)F)cc2cn(C3(C)CC3)nc12 [Example 232] | > 6.70
C[C@]1(C(N)=O)COc2c1cc([C@@](O)(CNC(=O)c1cnc(-c3ccccc3F)s1)C(F)(F)F)nc2-c1ccc(F)cc1 [Example 484] | < 6.70
COc1cccc(-c2n[nH]cc2C(=O)NC[C@](O)(c2cc3c(c(-c4ccc(F)cc4)n2)OC[C@]3(C)C(N)=O)C(F)(F)F)c1 [Example 448] | < 6.70
Cc1c(C(=O)NC[C@](O)(c2cc3c(c(-c4ccc(F)cc4)n2)OC[C@]3(C)C(N)=O)C(F)(F)F)ccc2[nH]ncc12 [Example 101] | > 6.70
C[C@]1(C(N)=O)COc2c1cc([C@@](O)(CNC(=O)c1cc(F)c3[nH]ccc3c1)C(F)(F)F)nc2-c1ccc(F)cc1 [Example 197] | > 6.70
Cc1cnc(C(=O)NC[C@](O)(c2cc3c(c(-c4ccc(F)cc4)n2)OC[C@]3(C)C(N)=O)C(F)(F)F)cn1 [Example 390] | < 6.70
Cc1cc2cc(C(=O)NC[C@](O)(c3cc4c(c(-c5ccc(F)cc5)n3)OC[C@]4(C)C(N)=O)C(F)(F)F)ccc2n1C [Example 175] | < 6.70
COc1cc(C(=O)NC[C@](O)(c2cc3c(c(-c4ccc(F)cc4)n2)OC[C@]3(C)C(N)=O)C2CC2)cc2cn(C3CC3)nc12 [Example 302] | > 6.70
CC(C)(O)CNC(=O)Nc1cc(C(=O)NC[C@](O)(c2cc3c(c(-c4ccc(F)cc4)n2)OC[C@]3(C)C(N)=O)C(F)(F)F)cc2cc(C3CC3)cnc12 [Example 215] | > 6.70
C[C@]1(C(N)=O)COc2c1cc([C@@](O)(CNC(=O)c1cnc3cccnn13)C(F)(F)F)nc2-c1ccc(F)cc1 [Example 409] | < 6.70
CC[C@]1(C(N)=O)COc2c1cc([C@@](O)(CNC(=O)c1cc(OC)c3ncccc3c1)C(F)(F)F)nc2-c1ccc(F)cc1 [Example 237] | > 6.70
